Patent US12129237B2, “Substituted diaminocarboxamide and diaminocarbonitrile pyrimidines, compositions thereof, and methods of treatment therewith” (SIGNAL PHARMACEUTICALS, LLC, priority 2011, dated 2024)

target: T1, JNK1 (Homo sapiens, UniProt P45983); assay: JNK1 biochemical assays (one or more of: time resolved fluorescence, Z'-LYTE Cascade, radioactive); settings: Table 2; JNK1 IC50 activity level; read-out: Act. Level
T1 construct: purchased Carna Biosciences
T1 sequence (P45983 whole entry): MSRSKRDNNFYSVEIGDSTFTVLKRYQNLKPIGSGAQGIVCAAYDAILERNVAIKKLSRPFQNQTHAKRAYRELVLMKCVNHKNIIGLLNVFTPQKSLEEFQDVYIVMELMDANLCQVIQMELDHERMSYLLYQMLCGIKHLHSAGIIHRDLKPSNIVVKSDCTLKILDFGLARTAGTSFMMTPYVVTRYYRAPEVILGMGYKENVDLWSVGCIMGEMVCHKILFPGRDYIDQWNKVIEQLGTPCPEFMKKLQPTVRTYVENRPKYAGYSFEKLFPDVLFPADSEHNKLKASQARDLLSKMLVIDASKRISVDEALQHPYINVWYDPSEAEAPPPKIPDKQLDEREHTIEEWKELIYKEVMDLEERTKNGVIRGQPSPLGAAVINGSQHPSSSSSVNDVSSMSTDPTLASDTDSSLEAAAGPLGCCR

`Cc1cc(Nc2ncc(C(N)=O)c(Nc3ccccc3)n2)n[nH]1` [Example B-33, 2-(5-methyl-1H-pyrazol-3-ylamino)-4-(phenylamino)pyrimidine-5-carboxamide] and `COc1ccc(NC(C)=O)cc1Nc1ncc(C(N)=O)c(Nc2ccccc2)n1` [Example B-32, 2-(5-acetamido-2-methoxyphenylamino)-4-(phenylamino)pyrimidine-5-carboxamide] fall in the same range of IC50: 200 to 800 nM for the first, 200 to 800 nM for the second.

`CCC(Nc1ncc(C(N)=O)c(Nc2ccccc2)n1)c1ccccc1` (stereo not shown) [Example B-56, 4-(phenylamino)-2-(1-phenylpropylamino)pyrimidine-5-carboxamide] and `COc1ccc(CCNc2ncc(C(N)=O)c(Nc3ccccc3)n2)cc1` [Example B-38, 2-(4-methoxyphenethylamino)-4-(phenylamino)pyrimidine-5-carboxamide] fall in the same range of IC50: 200 to 800 nM for the first, 200 to 800 nM for the second.

same assay, conditions: Table 3; JNK1 IC50 activity level; read-out: Act. Level

`CCO[C@H]1CC[C@H](Nc2ncc(C#N)c(N[C@@H]3CCCOC3)n2)CC1` [Example C-26, 2-((1r,4R)-4-ethoxycyclohexylamino)-4-((R)-tetrahydro-2H-pyran-3-ylamino)pyrimidine-5-carbonitrile] and `CCO[C@H]1CC[C@H](Nc2ncc(C#N)c(N[C@H]3CCC[C@@H](O)C3)n2)CC1` [Example C-1, 2-((1r,4S)-4-ethoxycyclohexylamino)-4-((1S,3R)-3-hydroxycyclohexylamino) pyrimidine-5-carbonitrile] fall in the same range of IC50: 200 to 800 nM for the first, 200 to 800 nM for the second.

`N#Cc1cnc(N[C@H]2CC[C@H](OC(F)F)CC2)nc1N[C@@H]1CCC[C@H](O)C1` [Example C-6, 2-((1r,4R)-4-(difluoromethoxy)cyclohexylamino)-4-((1R,3S)-3-hydroxycyclohexylamino) pyrimidine-5-carbonitrile] was tested, and the IC50 was < 200 nM.

same assay, conditions: one or more of the JNK1 biochemical assays; read-out: Act. Level (JNK1 IC50 activity level)

First: CC1(C)CCC(Nc2nc(NC(C)(C)C)ncc2C(N)=O)C(O)C1 (stereo not shown) [Example 342, 2-(tert-butylamino)-4-(2-hydroxy-4,4-dimethylcyclohexylamino)pyrimidine-5-carboxamide]
Second: CC(C)(C)Nc1nc(NC2(C)CCOCC2)ncc1C(N)=O [Example 389, 4-(tert-butylamino)-2-(4-methyltetrahydro-2H-pyran-4-ylamino)pyrimidine-5-carboxamide]
The IC50 of the first is higher: 200 to 800 nM for the first, < 200 nM for the second.

`NC(=O)c1cnc(N[C@H]2CC[C@H](OCC(F)(F)F)CC2)nc1N[C@@H]1CCC[C@H]1CO` [Example 331, 4-((1R,2R)-2-(hydroxymethyl)cyclopentylamino)-2-((1r,4R)-4-(2,2,2-trifluoroethoxy)cyclohexylamino)pyrimidine-5-carboxamide] and `NC(=O)c1cnc(N[C@H]2CC[C@H](OCC(F)(F)F)CC2)nc1N[C@@H]1CCC[C@@H]1CO` [Example 266, 4-((1R,2S)-2-(hydroxymethyl)cyclopentylamino)-2-((1r,4R)-4-(2,2,2-trifluoroethoxy)cyclohexylamino)pyrimidine-5-carboxamide] cannot be ordered by IC50: < 200 nM for the first, < 200 nM for the second.

`NC(=O)c1cnc(N[C@H]2CC[C@H](O)CC2)nc1NCCC1CC1` [Example 218, 4-(2-cyclopropylethylamino)-2-((1r,4r)-4-hydroxycyclohexylamino)pyrimidine-5-carboxamide] and `CC[C@H](Nc1nc(N[C@H]2CC[C@H](O)CC2)ncc1C(N)=O)C1CC1` [Example 384, 4-((S)-1-cyclopropylpropylamino)-2-((1r,4S)-4-hydroxycyclohexylamino)pyrimidine-5-carboxamide] cannot be ordered by IC50: < 200 nM for the first, < 200 nM for the second.

`CCC(CC)Nc1nc(N[C@H]2CC[C@H](O)CC2)ncc1C(N)=O` [Example 363, 2-((1r,4r)-4-hydroxycyclohexylamino)-4-(pentan-3-ylamino)pyrimidine-5-carboxamide] and `CC1CCC1Nc1nc(N[C@H]2CC[C@H](O)CC2)ncc1C(N)=O` (stereo partly shown) [Example 245, 2-((1r,4r)-4-hydroxycyclohexylamino)-4-(2-methylcyclobutylamino)pyrimidine-5-carboxamide] cannot be ordered by IC50: < 200 nM for the first, < 200 nM for the second.

`CC[C@@H](C)Nc1ncc(C(N)=O)c(N[C@@H]2CCC[C@H](O)C2)n1` [Example 497, 2-(sec-butylamino)-4-((1R,3S)-3-hydroxycyclohexylamino)pyrimidine-5-carboxamide] and `CC1(Nc2ncc(C(N)=O)c(N[C@@H]3CCC[C@H](O)C3)n2)CC1` [Example 438, 4-((1R,3S)-3-hydroxycyclohexylamino)-2-(1-methylcyclopropylamino)pyrimidine-5-carboxamide] cannot be ordered by IC50: < 200 nM for the first, < 200 nM for the second.

`COC12CCC(Nc3ncc(C(N)=O)c(NC4CCC[C@](C)(O)C4)n3)(CC1)CC2` (stereo partly drawn) [Example 370, 4-((3S)-3-hydroxy-3-methylcyclohexylamino)-2-(4-methoxybicyclo[2.2.2]octan-1-ylamino)pyrimidine-5-carboxamide] and `C[C@@H]1CC[C@@H](Nc2nc(NC34CC(C(C)(C)C)(C3)C4)ncc2C(N)=O)C[C@H]1O` [Example 489, 2-(3-tert-butylbicyclo[1.1.1]pentan-1-ylamino)-4-((1R,3R,4R)-3-hydroxy-4-methylcyclohexylamino)pyrimidine-5-carboxamide] cannot be ordered by IC50: < 200 nM for the first, < 200 nM for the second.

`CC1CCC1Nc1nc(N[C@H]2CC[C@H](OCC(F)(F)F)CC2)ncc1C(N)=O` (stereo partly shown) [Example 256, 4-(2-methylcyclobutylamino)-2-((1r,4r)-4-(2,2,2-trifluoroethoxy)cyclohexylamino)pyrimidine-5-carboxamide] and `CC1(Nc2nc(N[C@H]3CC[C@H](OCC(F)(F)F)CC3)ncc2C(N)=O)CCC1` [Example 415, 4-(1-methylcyclobutylamino)-2-((1r,4r)-4-(2,2,2-trifluoroethoxy)cyclohexylamino)pyrimidine-5-carboxamide] cannot be ordered by IC50: < 200 nM for the first, < 200 nM for the second.

`CC1CCC1Nc1nc(N[C@H]2CC[C@H](OCC(F)(F)F)CC2)ncc1C(N)=O` (stereo partly shown) [Example 257, 4-(2-methylcyclobutylamino)-2-((1r,4r)-4-(2,2,2-trifluoroethoxy)cyclohexylamino)pyrimidine-5-carboxamide] and `CCC1(Nc2nc(N[C@H]3CC[C@H](OC4CC4)CC3)ncc2C(N)=O)CCCC1` [Example 463, 2-((1r,4r)-4-cyclopropoxycyclohexylamino)-4-(1-ethylcyclopentylamino)pyrimidine-5-carboxamide] cannot be ordered by IC50: < 200 nM for the first, < 200 nM for the second.

same assay, conditions: tested in one or more of the JNK1 biochemical assays; read-out: Act. Level (JNK1 biochemical assay IC50 activity level)

`CCNC(=O)[C@H]1CC[C@@H](Nc2nc(NC(C)C)ncc2C(N)=O)CC1` [Example A-141, 4-((1s,4s)-4-(ethylcarbamoyl)cyclohexylamino)-2-(isopropylamino)pyrimidine-5-carboxamide] and `CNC(=O)[C@H]1CC[C@@H](Nc2nc(NC3CCCC3)ncc2C(N)=O)CC1` [Example A-130, 2-(cyclopentylamino)-4-((1s,4s)-4-(methylcarbamoyl)cyclohexylamino)pyrimidine-5-carboxamide] fall in the same range of IC50: 1000 to 10000 nM for the first, 1000 to 10000 nM for the second.

`CO[C@H]1CC[C@@H](Nc2nc(N[C@H]3CC[C@H](O)C3)ncc2C(N)=O)CC1` [Example A-81, 2-((1S,3S)-3-hydroxycyclopentylamino)-4-((1s,4R)-4-methoxycyclohexylamino)pyrimidine-5-carboxamide] and `CO[C@H]1CC[C@H](Nc2ncc(C(N)=O)c(N[C@H]3CCC[C@@H]3O)n2)CC1` [Example A-91, 4-((1S,2S)-2-hydroxycyclopentylamino)-2-((1r,4S)-4-methoxycyclohexylamino)pyrimidine-5-carboxamide] cannot be ordered by IC50: < 200 nM for the first, < 200 nM for the second.

`CCO[C@H]1CC[C@H](Nc2ncc(C(N)=O)c(NCCO)n2)CC1` [Example A-71, 2-((1r,4r)-4-ethoxycyclohexylamino)-4-(2-hydroxyethylamino)pyrimidine-5-carboxamide] and `NC(=O)c1cnc(N[C@H]2CC[C@H](OCC(F)(F)F)CC2)nc1NC1CCC1` [Example A-174, 4-(cyclobutylamino)-2-((1r,4r)-4-(2,2,2-trifluoroethoxy)cyclohexylamino)pyrimidine-5-carboxamide] cannot be ordered by IC50: < 200 nM for the first, < 200 nM for the second.

First: NC(=O)c1cnc(N[C@H]2CC[C@H](OCC(F)(F)F)CC2)nc1N[C@@H]1CCCC[C@H](O)C1 [Example A-160, 4-((1R,3S)-3-hydroxycycloheptylamino)-2-((1r,4R)-4-(2,2,2-trifluoroethoxy)cyclohexylamino)pyrimidine-5-carboxamid]
Second: CCC(=O)N[C@H]1CC[C@@H](Nc2nc(NC3CCCC3)ncc2C(N)=O)CC1 [Example A-129, 2-(cyclopentylamino)-4-((1s,4s)-4-propionamidocyclohexylamino)pyrimidine-5-carboxamide]
The IC50 of the first is lower: < 200 nM for the first, 200 to 800 nM for the second.

First: NC(=O)c1cnc(N[C@H]2CC[C@](O)(c3ccccc3)CC2)nc1N[C@H]1CCC[C@@H]1O [Example A-70, 2-((1s,4R)-4-hydroxy-4-phenylcyclohexylamino)-4-((1S,2S)-2-hydroxycyclopentylamino)pyrimidine-5-carboxamide]
Second: CO[C@H]1CC[C@H](Nc2ncc(C(N)=O)c(N[C@H]3CC[C@@](C)(O)CC3)n2)CC1 [Example A-69, 4-((1s,4s)-4-hydroxy-4-methylcyclohexylamino)-2-((1r,4r)-4-methoxycyclohexylamino)pyrimidine-5-carboxamide]
The IC50 of the first is higher: 200 to 800 nM for the first, < 200 nM for the second.

First: CC(C)CC(=O)N1CCC(Nc2ncc(C(N)=O)c(NC3CCC3)n2)CC1 [Example A-107, 4-(cyclobutylamino)-2-(1-(3-methylbutanoyl)piperidin-4-ylamino)pyrimidine-5-carboxamide]
Second: CC(C)CC(=O)N[C@H]1CC[C@@H](Nc2nc(NC3CC3)ncc2C(N)=O)CC1 [Example A-138, 2-(cyclopropylamino)-4-((1s,4s)-4-(3-methylbutanamido)cyclohexylamino)pyrimidine-5-carboxamide]
The IC50 of the first is lower: < 200 nM for the first, 800 to 1000 nM for the second. The first is the more potent here.

Compared with `C[C@H](Nc1ncc(C(N)=O)c(N[C@H]2CC[C@@H](CO)CC2)n1)C1CCCCC1` [Example A-122, 2-((S)-1-cyclohexylethylamino)-4-((1s,4R)-4-(hydroxymethyl)cyclohexylamino)pyrimidine-5-carboxamide], `NC(=O)c1cnc(NC2CCC2)nc1N[C@H]1CC[C@@H](C(=O)NC2CC2)CC1` [Example A-132, 2-(cyclobutylamino)-4-((1s,4s)-4-(cyclopropylcarbamoyl)cyclohexylamino)pyrimidine-5-carboxamide] is higher in IC50: < 200 nM for the first, 1000 to 10000 nM for the second. The first is the more potent here.
